Laboratory results published in PubChem BioAssay (NCI).
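Cultured in 96-well plates, cells were exposed to test compound for 48 hours across five concentrations. Abbreviation: GI50, concentration required for 50% inhibition of growth. TGI marks complete inhibition of growth.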

Experiments:
Test in all cases: NCI anticancer screen, dose series, 48 h
SK-OV-3 ovarian = system: SK-OV-3 ovarian
RPMI-8226 leukemia = system: RPMI-8226 leukemia
UO-31 renal = system: UO-31 renal
MCF7 breast = system: MCF7 breast
OVCAR-4 ovarian = system: OVCAR-4 ovarian
A549 NSCLC = system: A549 NSCLC
OVCAR-8 ovarian = system: OVCAR-8 ovarian
IGROV1 ovarian = system: IGROV1 ovarian
SK-MEL-2 melanoma = system: SK-MEL-2 melanoma
SN12C renal = system: SN12C renal
DU-145 prostate = system: DU-145 prostate
M14 melanoma = system: M14 melanoma
SR leukemia = system: SR leukemia
BT-549 breast = system: BT-549 breast
SK-MEL-28 melanoma = system: SK-MEL-28 melanoma
SNB-75 CNS = system: SNB-75 CNS
HT29 colon = system: HT29 colon
HS 578T breast = system: HS 578T breast
COLO 205 colon = system: COLO 205 colon
U251 CNS = system: U251 CNS
NCI-H460 lung = system: NCI-H460 lung
KM12 colon = system: KM12 colon
UACC-257 melanoma = system: UACC-257 melanoma
HCT-15 colon = system: HCT-15 colon
TK-10 renal = system: TK-10 renal
SF-295 CNS = system: SF-295 CNS
SF-268 CNS = system: SF-268 CNS
UACC-62 melanoma = system: UACC-62 melanoma
NCI-H522 lung = system: NCI-H522 lung
HOP-62 NSCLC = system: HOP-62 NSCLC
K-562 leukemia = system: K-562 leukemia
MDA-MB-435 = system: MDA-MB-435
EKVX NSCLC = system: EKVX NSCLC
HCC-2998 colon = system: HCC-2998 colon
NCI-H226 lung = system: NCI-H226 lung
MDA-MB-231 breast = system: MDA-MB-231 breast
MOLT-4 leukemia = system: MOLT-4 leukemia
NCI-H23 lung = system: NCI-H23 lung
HCT-116 colon = system: HCT-116 colon
RXF 393 renal = system: RXF 393 renal
SK-MEL-5 melanoma = system: SK-MEL-5 melanoma
CCRF-CEM leukemia = system: CCRF-CEM leukemia
NCI/ADR-RES ovarian = system: NCI/ADR-RES ovarian
HL-60(TB) leukemia = system: HL-60(TB) leukemia
PC-3 prostate = system: PC-3 prostate
A498 renal = system: A498 renal
HOP-92 NSCLC = system: HOP-92 NSCLC
786-0 renal = system: 786-0 renal
T-47D breast = system: T-47D breast
ACHN renal = system: ACHN renal
SF-539 CNS = system: SF-539 CNS
MALME-3M melanoma = system: MALME-3M melanoma
LOX IMVI melanoma = system: LOX IMVI melanoma
SW-620 colon = system: SW-620 colon
SNB-19 CNS = system: SNB-19 CNS
OVCAR-3 ovarian = system: OVCAR-3 ovarian
OVCAR-5 ovarian = system: OVCAR-5 ovarian

In the case of `Cc1cc(N2CCCCC2)nc(N(CCNc2ccnc3cc(Cl)ccc23)Cc2ccco2)n1`, the GI50 (SK-OV-3 ovarian) is reported as 2150 nM, the TGI (SK-OV-3 ovarian) is reported as 4900 nM and the GI50 (RPMI-8226 leukemia) is reported as 2000 nM. For the same compound, the TGI (RPMI-8226 leukemia) was 4550 nM, the GI50 (UO-31 renal) was 1410 nM and the TGI (UO-31 renal) was 2770 nM. The GI50 (MCF7 breast) was 1590 nM, the TGI (MCF7 breast) was 3190 nM and the GI50 (OVCAR-4 ovarian) was 1800 nM. For the same compound, the TGI (OVCAR-4 ovarian) was 4420 nM, the GI50 (A549 NSCLC) was 2690 nM and the TGI (A549 NSCLC) was 7740 nM. The GI50 (OVCAR-8 ovarian) was 1850 nM, the TGI (OVCAR-8 ovarian) was 3680 nM and the GI50 (IGROV1 ovarian) was 1280 nM. It also gave a TGI (IGROV1 ovarian) of 3650 nM, a GI50 (SK-MEL-2 melanoma) of 2060 nM and a TGI (SK-MEL-2 melanoma) of 4270 nM. For the same compound, the GI50 (SN12C renal) was 1830 nM, the TGI (SN12C renal) was 3560 nM and the GI50 (DU-145 prostate) was 2870 nM. It also gave a TGI (DU-145 prostate) of 9200 nM, a GI50 (M14 melanoma) of 1820 nM and a TGI (M14 melanoma) of 3610 nM. It also gave a GI50 (SR leukemia) of 1770 nM, a TGI (SR leukemia) of 4020 nM and a GI50 (BT-549 breast) of 1820 nM. For the same compound, the TGI (BT-549 breast) was 3500 nM, the GI50 (SK-MEL-28 melanoma) was 1830 nM and the TGI (SK-MEL-28 melanoma) was 3750 nM. The GI50 (SNB-75 CNS) was 1880 nM, the TGI (SNB-75 CNS) was 4330 nM and the GI50 (HT29 colon) was 1050 nM. For the same compound, the TGI (HT29 colon) was 2840 nM, the GI50 (HS 578T breast) was 2340 nM and the TGI (HS 578T breast) was 5520 nM. The GI50 (COLO 205 colon) was 1490 nM, the TGI (COLO 205 colon) was 3250 nM and the GI50 (U251 CNS) was 1730 nM. For the same compound, the TGI (U251 CNS) was 3190 nM, the GI50 (NCI-H460 lung) was 1760 nM and the TGI (NCI-H460 lung) was 3340 nM. It also gave a GI50 (KM12 colon) of 2070 nM, a TGI (KM12 colon) of 4710 nM and a GI50 (UACC-257 melanoma) of 2350 nM. It also gave a TGI (UACC-257 melanoma) of 5790 nM, a GI50 (HCT-15 colon) of 1440 nM and a TGI (HCT-15 colon) of 3300 nM. It also gave a GI50 (TK-10 renal) of 1940 nM, a TGI (TK-10 renal) of 4080 nM and a GI50 (SF-295 CNS) of 1510 nM. It also gave a TGI (SF-295 CNS) of 3120 nM, a GI50 (SF-268 CNS) of 2570 nM and a TGI (SF-268 CNS) of 6530 nM. It also gave a GI50 (UACC-62 melanoma) of 1740 nM, a TGI (UACC-62 melanoma) of 3340 nM and a GI50 (NCI-H522 lung) of 1610 nM. For the same compound, the TGI (NCI-H522 lung) was 3520 nM, the GI50 (HOP-62 NSCLC) was 1730 nM and the TGI (HOP-62 NSCLC) was 3730 nM. The GI50 (K-562 leukemia) was 1540 nM, the TGI (K-562 leukemia) was 4030 nM and the GI50 (MDA-MB-435) was 1800 nM. For the same compound, the TGI (MDA-MB-435) was 3520 nM, the GI50 (EKVX NSCLC) was 2090 nM and the TGI (EKVX NSCLC) was 6070 nM. It also gave a GI50 (HCC-2998 colon) of 2140 nM, a TGI (HCC-2998 colon) of 4480 nM and a GI50 (NCI-H226 lung) of 1690 nM. The TGI (NCI-H226 lung) was 3960 nM, the GI50 (MDA-MB-231 breast) was 1830 nM and the TGI (MDA-MB-231 breast) was 3530 nM. The GI50 (MOLT-4 leukemia) was 2290 nM, the TGI (MOLT-4 leukemia) was 5310 nM and the GI50 (NCI-H23 lung) was 1910 nM. For the same compound, the TGI (NCI-H23 lung) was 4970 nM, the GI50 (HCT-116 colon) was 1410 nM and the TGI (HCT-116 colon) was 2840 nM. For the same compound, the GI50 (RXF 393 renal) was 1560 nM, the TGI (RXF 393 renal) was 3320 nM and the GI50 (SK-MEL-5 melanoma) was 1680 nM. The TGI (SK-MEL-5 melanoma) was 3070 nM, the GI50 (CCRF-CEM leukemia) was 2470 nM and the TGI (CCRF-CEM leukemia) was 8760 nM. The GI50 (NCI/ADR-RES ovarian) was 1790 nM, the TGI (NCI/ADR-RES ovarian) was 3710 nM and the GI50 (HL-60(TB) leukemia) was 1910 nM. It also gave a TGI (HL-60(TB) leukemia) of 3940 nM, a GI50 (PC-3 prostate) of 1690 nM and a TGI (PC-3 prostate) of 3720 nM. It also gave a GI50 (A498 renal) of 1920 nM, a TGI (A498 renal) of 5090 nM and a GI50 (HOP-92 NSCLC) of 5730 nM. For the same compound, the TGI (HOP-92 NSCLC) was 21700 nM, the GI50 (786-0 renal) was 1660 nM and the TGI (786-0 renal) was 3070 nM. For the same compound, the GI50 (T-47D breast) was 1820 nM, the TGI (T-47D breast) was 4320 nM and the GI50 (ACHN renal) was 2720 nM. It also gave a TGI (ACHN renal) of 8060 nM, a GI50 (SF-539 CNS) of 2050 nM and a TGI (SF-539 CNS) of 4200 nM. It also gave a GI50 (MALME-3M melanoma) of 1980 nM, a TGI (MALME-3M melanoma) of 3650 nM and a GI50 (LOX IMVI melanoma) of 1660 nM. It also gave a TGI (LOX IMVI melanoma) of 3090 nM, a GI50 (SW-620 colon) of 1530 nM and a TGI (SW-620 colon) of 3080 nM. It also gave a GI50 (SNB-19 CNS) of 3260 nM, a TGI (SNB-19 CNS) of 12000 nM and a GI50 (OVCAR-3 ovarian) of 1740 nM. The TGI (OVCAR-3 ovarian) was 3140 nM, the GI50 (OVCAR-5 ovarian) was 2400 nM and the TGI (OVCAR-5 ovarian) was 6840 nM.
